Experimental data from patent US5849557A, “Oxidized phospholipid degrading enzyme and gene thereof” (Suntory Limited, priority 1993, dated 1998).

Assays:
[1] = target: T1, oxidized phospholipid degrading enzyme (purified enzyme) (Bos taurus, UniProt Q29460); test: biochemical; parameters: species or system bovine
T1 construct: from tissue; host or cells: bovine brain gray matter, soluble cytoplasmic fraction
T1 sequence (Q29460 2-232): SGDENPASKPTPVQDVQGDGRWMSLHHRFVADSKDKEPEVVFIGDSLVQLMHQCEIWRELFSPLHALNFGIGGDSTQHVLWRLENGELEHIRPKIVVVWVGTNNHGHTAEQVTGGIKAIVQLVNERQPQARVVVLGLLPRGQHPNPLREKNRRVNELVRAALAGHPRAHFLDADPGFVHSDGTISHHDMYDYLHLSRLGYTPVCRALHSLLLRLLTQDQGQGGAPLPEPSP
T1 sequence (P68401 2-229 partner limits assumed): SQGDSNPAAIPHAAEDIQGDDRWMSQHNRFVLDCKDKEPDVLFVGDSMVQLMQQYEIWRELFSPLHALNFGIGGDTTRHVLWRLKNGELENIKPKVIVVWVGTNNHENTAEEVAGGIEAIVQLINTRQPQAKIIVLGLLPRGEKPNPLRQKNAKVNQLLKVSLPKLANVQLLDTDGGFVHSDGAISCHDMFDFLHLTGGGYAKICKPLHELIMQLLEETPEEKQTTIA
T1 sequence (P43033 2-410 A26E/E154Q partner limits assumed): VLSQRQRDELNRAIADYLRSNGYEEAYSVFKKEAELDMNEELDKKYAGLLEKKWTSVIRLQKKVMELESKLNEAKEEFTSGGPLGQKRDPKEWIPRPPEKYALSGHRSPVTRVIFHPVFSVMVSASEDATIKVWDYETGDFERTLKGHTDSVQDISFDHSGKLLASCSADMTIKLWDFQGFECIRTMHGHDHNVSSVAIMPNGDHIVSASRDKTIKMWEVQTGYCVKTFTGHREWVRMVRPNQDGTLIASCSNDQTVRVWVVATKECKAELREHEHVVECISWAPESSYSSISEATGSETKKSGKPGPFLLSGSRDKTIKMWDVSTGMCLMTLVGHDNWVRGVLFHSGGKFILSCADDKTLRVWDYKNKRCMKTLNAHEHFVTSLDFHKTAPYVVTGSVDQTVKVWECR

[2] = target: T1, oxidized phospholipid degrading enzyme (purified enzyme); test: Substrate specificity of the purified enzyme; assay type: biochemical, bovine
Protocol: (§1) They were mixed in a test tube over ice and then incubated at 37° C. for 30 minutes. Thereafter, 560 μl of a chloroform-methanol (1:1) mixture were added to terminate the reaction. After the resulting mixture was vigorously mixed for 5 minutes by a vortex stirrer, the mixture was centrifuged for 5 minutes at 3,000 rpm to separate it into two layers. From the upper layer, 300 μl were collected, in which 3 ml of "Clearsol I" (product of NACALAI TESQUE INC.) were mixed. The radioactivity was measured by a liquid scintillation counter. From the intensity of the radioactivity, the amount of the dicarboxylic acid formed as a result of 2-hydrolysis was calculated to determine the enzyme activity.
(§2) Namely, Tris-HCl buffer (final concentration: 50 mM, pH 7.4) which contained as a substrate 20 nmol (6,000 dpm) of the labeled PAF obtained in step (a) was added with 5 mM EDTA or 4 mM CaCl2 as needed, to which the sample (enzyme source) to be measured was added to give a total volume of 250 μl.
as §1, with “2.5 ml” for “560 μl”, “(4:1)” for “(1:1)”, “Subsequent to addition of 0.25 ml of water,” for “After”, “stirrer and then” for “stirrer, the mixture was”, “600” for “300”, “acetic” for “the dicarboxylic”

[3] = system: oxidized phospholipid degrading enzyme; test: Influence of calcium ions on the enzyme activity; assay type: biochemical, bovine; settings: 4 mM calcium chloride
Protocol: as §2, with “Measurement of the oxidized phospholipid degrading enzyme by using PAF was conducted in a similar manner to Reference Example 2. Namely,” for “Namely,”
as §1, with “2.5 ml” for “560 μl”, “(4:1)” for “(1:1)”, “Subsequent to addition of 0.25 ml of water,” for “After”, “stirrer and then” for “stirrer, the mixture was”, “600” for “300”, “acetic” for “the dicarboxylic”
The enzyme activity was measured by the measuring method of Reference Example 3 except that 4 mM CaCl2 was added instead of 5 mM of EDTA.

[4] = target: T2, 30 kDa subunit of the oxidized phospholipid degrading enzyme (bovine); test: heparin Sepharose or sulfated Cellulofine column treatment of the native enzyme
T2 chain: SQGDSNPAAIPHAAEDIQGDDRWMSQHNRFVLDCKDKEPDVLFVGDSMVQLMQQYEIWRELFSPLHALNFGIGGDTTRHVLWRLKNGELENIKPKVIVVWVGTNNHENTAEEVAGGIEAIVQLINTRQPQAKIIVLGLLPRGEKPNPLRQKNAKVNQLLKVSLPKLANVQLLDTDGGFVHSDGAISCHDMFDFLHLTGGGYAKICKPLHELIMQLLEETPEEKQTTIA
Protocol: Against buffer A, 15 ml of the roughly purified fraction obtained in step (e) of Example 1 were dialyzed. The solution so dialyzed was then applied to a column (1×5 cm) of "heparin Sepharose" (product of Pharmacia AB) which had been equilibrated with buffer A, whereby about 80% of the enzyme activity passed through the column without adsorption. When the column was washed with buffer A subsequent to the passage of the dialyzed solution, the activity was gradually eluted with tailing.
After the column was washed with about 30 ml of buffer A, the enzyme was eluted with a 30 ml linear gradient of NaCl (0M to 1.5M) in buffer A. The enzyme activity was eluted around about 0.3M NaCl concentration. […] Further, the fractions eluted around about 0.6M NaCl concentration gave only one spot at 45 kDa.

[5] = target: T3, 30 kDa-29 kDa complex without the 45 kDa subunit (bovine); test: co-purification of the native enzyme; gel filtration and SDS-PAGE
T3 chain 1: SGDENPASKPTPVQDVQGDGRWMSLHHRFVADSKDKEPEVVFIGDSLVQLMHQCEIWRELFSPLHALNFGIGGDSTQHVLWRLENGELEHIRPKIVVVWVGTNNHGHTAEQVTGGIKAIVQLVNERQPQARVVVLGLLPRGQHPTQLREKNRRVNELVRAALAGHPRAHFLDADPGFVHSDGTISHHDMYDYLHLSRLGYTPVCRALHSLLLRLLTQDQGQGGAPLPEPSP
T3 chain 2: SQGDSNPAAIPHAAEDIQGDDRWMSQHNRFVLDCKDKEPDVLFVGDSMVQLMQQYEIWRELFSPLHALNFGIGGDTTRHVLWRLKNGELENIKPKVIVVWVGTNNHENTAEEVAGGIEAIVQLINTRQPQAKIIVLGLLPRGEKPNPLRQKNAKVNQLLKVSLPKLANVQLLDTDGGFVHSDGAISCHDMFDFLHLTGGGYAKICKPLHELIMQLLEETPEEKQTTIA

[6] = in the presence of 4 mM CaCl2, method of Dole et al.

With `O=C(CBr)c1ccc(Br)cc1` [BPB, p-bromophenacyl bromide] the “Inhibition of enzyme reactions (in words)” value [1] was “inhibited”, the “Inhibition of the purified enzyme (in words, summary of Table 3)” value [1] was “inhibited” and the inhibition at 100 µM [1] was 20%. The inhibition at 1000 µM [1] was 97%.

For `CCCCCCCCCCCCCCCCOC[C@H](COP(=O)([O-])OCC[N+](C)(C)C)OC(C)=O` [PAF, 1-hexadecyl-2-acetyl-sn-glycero-3-phospho-choline], the “Degrading activity / hydrolysis by the enzyme (in words)” value (shortened to “Degrading activity / hydrolysis”) [2] was “shows degrading activity” and the Specific activity ([2]; method of Reference Examples 2 and 3) was 1.45 nmol/min/mg.

In the case of `[Ca+2].[Cl-].[Cl-]` [CaCl2, calcium chloride], the “Enhancement of enzyme activity (in words)” value [3] is reported as “slightly enhanced”.

With `CCCCCCCCCCCCCCCC(=O)OC[C@@H](O)COP(=O)([O-])OCC[N+](C)(C)C` [Lyso PC, 1-palmitoyl-sn-glycero-3-phosphocholine] the “Degrading activity / hydrolysis” value [2] was “absolutely no degrading activity” and the Specific activity [2, 6] was “Not degraded”.

`NC(=O)CI` [IAM, iodoacetamide] was tested, and the “Inhibition of enzyme reactions (in words)” value [1] was “not inhibited”, the “Inhibition of the purified enzyme (in words, summary of Table 3)” value [1] was “not inhibited at all” and the inhibition at 100 µM [1] was 0%. For the same molecule, the inhibition at 1000 µM [1] was 0%.

phosphatidylethanolamine [PE] was tested, and the “Degrading activity / hydrolysis” value [2] was “does not show any degrading activity” and the Specific activity [2, 6] was “Not degraded”.

B1: 29 kDa subunit of the oxidized phospholipid degrading enzyme (enzyme)
chain: SGDENPASKPTPVQDVQGDGRWMSLHHRFVADSKDKEPEVVFIGDSLVQLMHQCEIWRELFSPLHALNFGIGGDSTQHVLWRLENGELEHIRPKIVVVWVGTNNHGHTAEQVTGGIKAIVQLVNERQPQARVVVLGLLPRGQHPTQLREKNRRVNELVRAALAGHPRAHFLDADPGFVHSDGTISHHDMYDYLHLSRLGYTPVCRALHSLLLRLLTQDQGQGGAPLPEPSP
B1: binds [4].

B2: 45 kDa subunit of the oxidized phospholipid degrading enzyme (other)
chain: VLSQRQRDELNRAIADYLRSNGYEEAYSVFKKEAELDMNEELDKKYAGLLEKKWTSVIRLQKKVMELESKLNEAKEEFTSGGPLGQKRDPKEWIPRPPEKYALSGHRSPVTRVIFHPVFSVMVSASEDATIKVWDYETGDFERTLKGHTDSVQDISFDHSGKLLASCSADMTIKLWDFQGFECIRTMHGHDHNVSSVAIMPNGDHIVSASRDKTIKMWEVQTGYCVKTFTGHREWVRMVRPNQDGTLIASCSNDQTVRVWVVATKECKAELREHEHVVECISWAPESSYSSISEATGSETKKSGKPGPFLLSGSRDKTIKMWDVSTGMCLMTLVGHDNWVRGVLFHSGGKFILSCADDKTLRVWDYKNKRCMKTLNAHEHFVTSLDFHKTAPYVVTGSVDQTVKVWECR
B2: binds [5].
